For experiment [1], the system named is Mus musculus. The experiment can be described thus: Mean survival time against trophozoite induced Plasmodium berghei in mice minus control was evaluated at a dose 640 mg/kg. It counts as functional.
The subject of experiment [2] is Mus musculus. In words: Mean survival time against trophozoite induced Plasmodium berghei in mice minus control was evaluated at a dose 160 mg/kg. It counts as functional.
The test system of experiment [3] is Mus musculus. The experiment can be described thus: Mean survival time against trophozoite induced Plasmodium berghei in mice minus control was evaluated at a dose 40 mg/kg. Type of experiment: functional.
For experiment [4], the system named is Mus musculus. The experiment can be described thus: Mean survival time against trophozoite induced Plasmodium berghei in mice minus control was evaluated at a dose 640 mg/kg; 7 survived out of 10 animals at 60 days postinjection. On the set-up: dose 640 mg/kg. Type of experiment: functional, organism-based.
Experiment [5] has as its system Mus musculus. In words: Mean survival time against trophozoite induced Plasmodium berghei in mice minus control was evaluated at a dose 80 mg/kg. It counts as functional.
The test system of experiment [6] is Mus musculus. In words: Mean survival time against trophozoite induced Plasmodium berghei in mice minus control was evaluated at a dose 320 mg/kg. It counts as functional.
The test system of experiment [7] is Mus musculus. The experiment can be described thus: Mean survival time against trophozoite induced Plasmodium berghei in mice minus control was evaluated at a dose 20 mg/kg. Type of experiment: functional.
Experiment [8] relates to Mus musculus. In words: Mean survival time against trophozoite induced Plasmodium berghei in mice minus control was evaluated at a dose 640 mg/kg; 9 survived out of 15 animals at 60 days postinjection. Type of experiment: functional, organism-based. On the set-up: dose 640 mg/kg.
Experiment [9] deals with Mus musculus. In words: Mean survival time against trophozoite induced Plasmodium berghei in mice minus control was evaluated at a dose 80 mg/kg; 1 survived out of 5 animals at 60 days postinjection. It counts as functional, organism-based. More on the design: dose 80 mg/kg.
The subject of experiment [10] is Mus musculus. The experiment can be described thus: Mean survival time against trophozoite induced Plasmodium berghei in mice minus control was evaluated at a dose 160 mg/kg; 6 survived out of 15 animals at 60 days postinjection. Type of experiment: functional, organism-based. More on the design: dose 160 mg/kg.
Experiment [11] deals with Mus musculus. In words: Mean survival time against trophozoite induced Plasmodium berghei in mice minus control was evaluated at a dose 320 mg/kg; 3 survived out of 5 animals at 60 days postinjection. Type of experiment: functional, organism-based. More on the design: dose 320 mg/kg.
Experiment [12] deals with Mus musculus. The experiment can be described thus: Mean survival time against trophozoite induced Plasmodium berghei in mice minus control was evaluated at a dose 640 mg/kg; 5 survived out of 5 animals at 60 days postinjection. On the set-up: dose 640 mg/kg. It counts as functional, organism-based.
Experiment [13] concerns Mus musculus. In words: Mean survival time against trophozoite induced Plasmodium berghei in mice minus control was evaluated at a dose 80 mg/kg; 10 survived out of 10 animals at 60 days postinjection. It counts as functional, organism-based. On the set-up: dose 80 mg/kg.
Experiment [14] deals with Mus musculus. The experiment can be described thus: Mean survival time against trophozoite induced Plasmodium berghei in mice minus control was evaluated at a dose 160 mg/kg; 10 survived out of 10 animals at 60 days postinjection. Type of experiment: functional, organism-based. On the set-up: dose 160 mg/kg.
Experiment [15] concerns Mus musculus. The experiment can be described thus: Mean survival time against trophozoite induced Plasmodium berghei in mice minus control was evaluated at a dose 10 mg/kg. Type of experiment: functional.
Experiment [16] deals with Mus musculus. The experiment can be described thus: Mean survival time against trophozoite induced Plasmodium berghei in mice minus control was evaluated at a dose 40 mg/kg; 4 survived out of 10 animals at 60 days postinjection. Type of experiment: functional, organism-based. More on the design: dose 40 mg/kg.
In experiment [17] the test system is Mus musculus. In words: Mean survival time against trophozoite induced Plasmodium berghei in mice minus control was evaluated at a dose 320 mg/kg; 10 survived out of 10 animals at 60 days postinjection. It counts as functional, organism-based. On the set-up: dose 320 mg/kg.
In experiment [18] the test system is Mus musculus. The experiment can be described thus: Mean survival time against trophozoite induced Plasmodium berghei in mice minus control was evaluated at a dose 40 mg/kg; 4 survived out of 10 animals at 60 days postinjection. Type of experiment: functional, organism-based. More on the design: dose 40 mg/kg.
Experiment [19] concerns Mus musculus. In words: Mean survival time against trophozoite induced Plasmodium berghei in mice minus control was evaluated at a dose 640 mg/kg; 10 toxic death occurred out of 10 animals on days 2-5 after injection. Type of experiment: functional, organism-based. More on the design: dose 640 mg/kg.
Experiment [20] relates to Mus musculus. In words: Mean survival time against trophozoite induced Plasmodium berghei in mice minus control was evaluated at a dose 80 mg/kg; 5 survived out of 5 animals at 60 days postinjection. Type of experiment: functional, organism-based. More on the design: dose 80 mg/kg.
Experiment [21] relates to Mus musculus. In words: Mean survival time against trophozoite induced Plasmodium berghei in mice minus control was evaluated at a dose 320 mg/kg; 3 toxic death occurred out of 5 animals on days 2-5 after injection. More on the design: dose 320 mg/kg. Type of experiment: functional, organism-based.
For experiment [22], the system named is Mus musculus. In words: Mean survival time against trophozoite induced Plasmodium berghei in mice minus control was evaluated at a dose 160 mg/kg; 2 toxic death occurred out of 10 animals on days 2-5 after injection. It counts as functional, organism-based. More on the design: dose 160 mg/kg.
Experiment [23] relates to Mus musculus. The experiment can be described thus: Mean survival time against trophozoite induced Plasmodium berghei in mice minus control was evaluated at a dose 80 mg/kg; 5 survived out of 5 animals at 60 days postinjection. It counts as functional, organism-based. More on the design: dose 80 mg/kg.
The test system of experiment [24] is Mus musculus. In words: Mean survival time against trophozoite induced Plasmodium berghei in mice minus control was evaluated at a dose 160 mg/kg; 5 survived out of 5 animals at 60 days postinjection. More on the design: dose 160 mg/kg. It counts as functional, organism-based.
Experiment [25] has as its system Mus musculus. The experiment can be described thus: Mean survival time against trophozoite induced Plasmodium berghei in mice minus control was evaluated at a dose 40 mg/kg; 5 survived out of 5 animals at 60 days postinjection. Type of experiment: functional, organism-based. On the set-up: dose 40 mg/kg.
Experiment [26] has as its system Mus musculus. The experiment can be described thus: Mean survival time against trophozoite induced Plasmodium berghei in mice minus control was evaluated at a dose 320 mg/kg; 5 survived out of 5 animals at 60 days postinjection. Type of experiment: functional, organism-based. On the set-up: dose 320 mg/kg.
Experiment [27] has as its system Mus musculus. The experiment can be described thus: Mean survival time against trophozoite induced Plasmodium berghei in mice minus control was evaluated at a dose 20 mg/kg; 3 survived out of 5 animals at 60 days postinjection. Type of experiment: functional, organism-based. More on the design: dose 20 mg/kg.
Experiment [28] relates to Mus musculus. In words: Mean survival time against trophozoite induced Plasmodium berghei in mice minus control was evaluated at a dose 5 mg/kg. It counts as functional.
For experiment [29], the system named is Mus musculus. The experiment can be described thus: Mean survival time against trophozoite induced Plasmodium berghei in mice minus control was evaluated at a dose 640 mg/kg; 1 cured and 2 toxic death. Type of experiment: functional, organism-based. More on the design: dose 640 mg/kg.
Experiment [30] has as its system Mus musculus. The experiment can be described thus: Mean survival time against trophozoite induced Plasmodium berghei in mice minus control was evaluated at a dose 160 mg/kg; 5 cured at 60 days postinjection. Type of experiment: functional, organism-based. On the set-up: dose 160 mg/kg.
The subject of experiment [31] is Mus musculus. The experiment can be described thus: Mean survival time against trophozoite induced Plasmodium berghei in mice minus control was evaluated at a dose 40 mg/kg; 1 cured at 60 days postinjection. Type of experiment: functional, organism-based. More on the design: dose 40 mg/kg.
The test system of experiment [32] is Mus musculus. In words: Mean survival time against trophozoite induced Plasmodium berghei in mice minus control was evaluated at a dose 1.25 mg/kg. Type of experiment: functional.
Experiment [33] has as its system Mus musculus. The experiment can be described thus: Mean survival time against trophozoite induced Plasmodium berghei in mice minus control was evaluated at a dose 2.5 mg/kg. Type of experiment: functional.
Experiment [34] concerns Mus musculus. The experiment can be described thus: Mean survival time against trophozoite induced Plasmodium berghei in mice minus control was evaluated at a dose 320 mg/kg; 2 cured and 3 toxic death. More on the design: dose 320 mg/kg. It counts as functional, organism-based.
The subject of experiment [35] is Mus musculus. The experiment can be described thus: Mean survival time against trophozoite induced Plasmodium berghei in mice minus control was evaluated at a dose 80 mg/kg; 3 cured at 60 days postinjection. Type of experiment: functional, organism-based. On the set-up: dose 80 mg/kg.
In experiment [36] the test system is Mus musculus. The experiment can be described thus: Mean survival time against trophozoite induced Plasmodium berghei in mice minus control was evaluated at a dose 40 mg/kg; 15 survived out of 15 animals at 60 days postinjection. Type of experiment: functional, organism-based. More on the design: dose 40 mg/kg.
Experiment [37] has as its system Mus musculus. In words: Mean survival time against trophozoite induced Plasmodium berghei in mice minus control was evaluated at a dose 20 mg/kg; 8 survived out of 15 animals at 60 days postinjection. Type of experiment: functional, organism-based. More on the design: dose 20 mg/kg.
Experiment [38] has as its system Mus musculus. In words: Mean survival time against trophozoite induced Plasmodium berghei in mice minus control was evaluated at a dose 40 mg/kg; 10 survived out of 10 animals at 60 days postinjection. Type of experiment: functional, organism-based. On the set-up: dose 40 mg/kg.
Experiment [39] concerns Mus musculus. In words: Mean survival time against trophozoite induced Plasmodium berghei in mice minus control was evaluated at a dose 20 mg/kg; 8 survived out of 10 animals at 60 days postinjection. Type of experiment: functional, organism-based. More on the design: dose 20 mg/kg.

These results are taken from ChEMBL document CHEMBL1122946, “Folate antagonists. 21. Synthesis and antimalarial properties of 2,4-diamino-6-(benzylamino)pyrido[3,2-d]pyrimidines” (1985).

Consider `CC(c1ccc(Cl)c(Cl)c1)N(C)c1ccc2nc(N)nc(N)c2n1` (stereo not drawn), for which the “Delta MST” value in experiment [1] was found to be 3.9 days; in [2], 2.3 days; in [3], 1.7 days.
As for `Nc1nc(N)c2nc(NCc3ccc(Cl)c(Cl)c3)ccc2n1`, the “Delta MST” value in experiment [4] is “Survivals 7/10”; in [5], 4.9 days; in [2], 12.4 days; in experiment [6], 15.3 days; in experiment [3], 1.8 days; in experiment [7], 0.5 days.
Turning to `CN(Cc1cccc(Br)c1)c1ccc2nc(N)nc(N)c2n1`, the “Delta MST” value in experiment [8] was “Survivals 9/15”; in experiment [9], “Survivals 1/5”; in experiment [10], “Survivals 6/15”; in experiment [11], “Survivals 3/5”; in experiment [3], 9.8 days; in [7], 9.1 days.
As for `Nc1nc(N)c2cc(N(C=O)Cc3ccc(Cl)c(Cl)c3)ccc2n1`, the “Delta MST” value in [12] is “Survivals 5/5”; in [13], “Survivals 10/10”; in experiment [14] it was “Survivals 10/10”; in [15], 4.3 days; in experiment [16] it was “Survivals 4/10”; in experiment [7], 8.2 days. Besides, in experiment [17], the “Delta MST” value is listed as “Survivals 10/10”.
As to `CCN(Cc1ccccc1)c1ccc2nc(N)nc(N)c2n1`, the “Delta MST” value in experiment [18] is “Survivals 4/10”; in experiment [19], “Toxic Deaths 10/10”; in [20], “Survivals 5/5”; in [21], “Toxic Deaths 3/5”; in [22], “Toxic Deaths 2/10”; in experiment [7], 9.7 days.
`CCN(Cc1ccc(Cl)cc1)c1ccc2nc(N)nc(N)c2n1`: the “Delta MST” value was 1.1 days in experiment [1], 0.9 days in experiment [2] and 0.9 days in experiment [3].
Consider `CN(Cc1cccc(Cl)c1)c1ccc2nc(N)nc(N)c2n1`, for which the “Delta MST” value in experiment [12] is “Survivals 5/5”; in [23] it was “Survivals 5/5”; in experiment [24] it was “Survivals 5/5”; in [25] it was “Survivals 5/5”; in experiment [26], “Survivals 5/5”; in experiment [27], “Survivals 3/5”.
Turning to `CCc1nc(N)nc(N)c1-c1ccc(Cl)cc1` [PYRIMETHAMINE], the “Delta MST” value in experiment [28] is 5.3 days; in experiment [29], “Survivals 1 Toxic Deaths 2”; in experiment [30], “Survivals 5”; in experiment [15], 6.1 days; in experiment [31], “Survivals 1”; in [32], 3.1 days. In addition, the “Delta MST” value in [33] was 4.7 days; in experiment [7], 7.7 days; in experiment [34], “Survivals 2 Toxic deaths 3”; in experiment [35] it was “Survivals 3”.
In the case of `CN(Cc1ccc(Cl)c(Cl)c1)c1ccc2nc(N)nc(N)c2c1`, the “Delta MST” value in experiment [12] was “Survivals 5/5”; in experiment [13], “Survivals 10/10”; in [14] it was “Survivals 10/10”; in [15], 8.7 days; in experiment [36], “Survivals 15/15”; in experiment [37] it was “Survivals 8/15”. Further, the “Delta MST” value in experiment [17] is listed as “Survivals 10/10”.
In the case of `CN(Cc1ccc(Cl)c(Cl)c1)c1ccc2nc(N)nc(N)c2n1`, the “Delta MST” value in experiment [28] is 9.1 days; in experiment [23], “Survivals 5/5”; in [24], “Survivals 5/5”; in [15], 11.9 days; in experiment [26], “Survivals 5/5”; in experiment [38], “Survivals 10/10”. Also, the “Delta MST” value in [32] was 2.9 days; in experiment [33], 4.3 days; in [39] it was “Survivals 8/10”.
